Read-outs that look alike come from different tables or passages of the source.
Key:
P-gp (MDR1) [1] = biological target: T1, P-gp (MDR1) (Homo sapiens, UniProt P08183); assay: Bi-directional transport (monolayer efflux) study across MDCK-MDR1 cell monolayers; details: human, HPS conditions; for Papp A→B / Papp B→A: recovery-corrected mean ± SD, n = 3; for recovery: MDCK-MDR1 cell monolayers
Procedure: (§1) As such, for this study, MDCK-II-MDR1 cells transfected with human MDR1 for P-gp expression were obtained from The Netherlands Cancer Institute (Amsterdam, The Netherlands).
(§2) For transport experiments, MDCK-MDR1 cells were used between passages 20 and 40. Cells were seeded onto 12-well PET inserts (CellQART, Northeim, Germany; pore size: 0.4 µm; filter thickness: 11.5 µm) at a density of 1.5 × 10^5 cells/insert. Inserts with a high porosity of 100 × 10^6 pores/cm ​^2 or low porosity of 2 × 10 ​^6 pores/cm ​^2 were used. After seeding, cells were maintained as described in Section 3.1.2 for 4 days to ensure confluent cell monolayer formation. The cell medium was exchanged one day before the transport experiments were performed. Prior to the transport experiments, the inserts were washed with Hank’s balanced salt solution (HBSS) to remove residual DMEM. […] For all other inserts, no inhibitor was used.
(§3) The apical-to-basolateral ( A→B direction) as well as the basolateral-to-apical ( B→A direction) transport rates of the test compounds were determined in duplicate with varying stirring and filter conditions. The three conditions tested were as follows: high-porosity filters, stirred (HPS); high-porosity filters, unstirred (HPU); and low-porosity filters, stirred (LPS). The transport buffer was HBSS with 25 mM HEPES at pH 7.4. Stock solutions were prepared in the transport buffer, and all solutions were pre-warmed to 37 °C. […] The pHs of the buffer and stock solutions prior to the experiment as well as the pHs of all samples after experiment completion were controlled with a rapid pH automated pH meter (Hudson Robotics, Inc., Springfield, NJ, USA). The pHs remained within a range of ±0.15.
(§4) Inserts were used in 12-well plates (TPP Techno Plastic Products AG, Trasadingen, Switzerland), the basolateral compartment volume was 1.6 mL, and the apical compartment volume was 0.5 mL. The transport experiments were initiated by replacing the HBSS with transport buffer and the test compound solution.
(§5) For measurement of transport in the A→B direction: Inserts were placed in 12-well plates containing transport buffer in the basolateral compartment, after which, the test compound solution was added to the apical compartment. At every sampling step, each insert was placed into a new well containing fresh, warmed assay buffer, and the old buffer was sampled. Sampling occurred at four consistent time intervals.
(§6) For measurement of transport in the B→A direction: Inserts were placed in 12-well plates containing the test compound solution in the basolateral compartment (donor), after which, transport buffer was added to the apical compartment. At each sampling time step, 300 μ L was sampled from the apical compartment (the maximum amount that could be removed without disturbing the cell layer) and replaced with an equal volume of warmed, fresh transport buffer. Sampling occurred at four consistent time intervals. Time intervals for sampling were determined uniquely for each compound and direction measured to ensure that sink conditions would be maintained throughout the experiment.

human P-gp [2] = biological target: T2, human P-gp (Homo sapiens, UniProt P08183); assay: as above; details: for ER: HPS conditions
T2 sequence (P08183 whole entry): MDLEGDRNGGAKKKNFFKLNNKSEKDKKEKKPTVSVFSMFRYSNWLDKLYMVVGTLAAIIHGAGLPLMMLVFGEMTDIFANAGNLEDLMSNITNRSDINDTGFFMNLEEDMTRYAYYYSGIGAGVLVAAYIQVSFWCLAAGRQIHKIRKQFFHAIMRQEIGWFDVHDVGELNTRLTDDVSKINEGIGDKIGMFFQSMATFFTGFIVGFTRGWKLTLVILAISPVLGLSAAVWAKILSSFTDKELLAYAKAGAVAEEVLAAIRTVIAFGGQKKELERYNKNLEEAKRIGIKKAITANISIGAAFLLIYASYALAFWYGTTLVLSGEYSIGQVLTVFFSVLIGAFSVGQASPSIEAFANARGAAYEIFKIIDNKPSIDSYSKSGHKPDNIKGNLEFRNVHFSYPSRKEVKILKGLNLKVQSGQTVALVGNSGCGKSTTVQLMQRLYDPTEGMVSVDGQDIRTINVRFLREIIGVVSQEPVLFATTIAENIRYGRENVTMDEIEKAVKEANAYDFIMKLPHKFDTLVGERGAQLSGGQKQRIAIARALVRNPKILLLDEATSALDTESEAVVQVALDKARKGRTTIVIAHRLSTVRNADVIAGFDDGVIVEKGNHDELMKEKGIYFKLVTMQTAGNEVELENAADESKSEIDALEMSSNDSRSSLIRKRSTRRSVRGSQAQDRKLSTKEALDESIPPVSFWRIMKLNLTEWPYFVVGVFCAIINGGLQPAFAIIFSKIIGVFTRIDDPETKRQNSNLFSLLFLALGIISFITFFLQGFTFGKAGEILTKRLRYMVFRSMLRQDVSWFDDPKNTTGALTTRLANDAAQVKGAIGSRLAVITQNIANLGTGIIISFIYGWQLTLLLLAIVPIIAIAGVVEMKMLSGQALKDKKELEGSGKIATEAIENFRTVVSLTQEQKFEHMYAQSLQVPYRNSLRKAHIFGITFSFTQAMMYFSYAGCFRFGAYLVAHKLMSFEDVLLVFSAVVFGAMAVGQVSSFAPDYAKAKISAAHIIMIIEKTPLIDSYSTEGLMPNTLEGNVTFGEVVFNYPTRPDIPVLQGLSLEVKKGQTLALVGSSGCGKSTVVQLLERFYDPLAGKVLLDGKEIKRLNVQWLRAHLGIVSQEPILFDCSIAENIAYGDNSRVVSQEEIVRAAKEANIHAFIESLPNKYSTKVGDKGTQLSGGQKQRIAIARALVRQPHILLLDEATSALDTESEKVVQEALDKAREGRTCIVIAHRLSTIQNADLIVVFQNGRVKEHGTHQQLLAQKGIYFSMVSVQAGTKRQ
Procedure: as §1, §2, §3, §4, §5, §6

P-gp (MDR1) [3] = biological target: T1, P-gp (MDR1); assay: in vitro; details: for efflux ratio: MDCK-MDR1, pH 7.4, ER (Papp,B→A over Papp,A→B); for efflux ratio / Papp A→B / Papp B→A: pH 7.4 ISO-pH, 12 μM (loperamide 10 μM); for Papp A→B: MDCK-MDR1, pH 7.4, Papp,A→B; for Papp A→B / Papp B→A: recovery-corrected mean ± SD; for Papp B→A: MDCK-MDR1, pH 7.4, Papp,B→A; for recovery: pH 7.4, Recovery, pH 7.4, MDCK-MDR1, 12 μM (loperamide 10 μM)
Procedure: as §1, §2, §3, §4, §5, §6

human P-gp [4] = biological target: T2, human P-gp; details: MDCK-MDR1, pH 7.4
Procedure: as §1, §2, §3, §4, §5, §6

[5] = HPS: high-porosity filter, stirred
[6] = HPU: high-porosity filter, unstirred
[7] = LPS: low-porosity filter, stirred

T1 sequence (P08183 whole entry): as above

COc1cccc2c1C(=O)c1c(O)c3c(c(O)c1C2=O)C[C@@](O)(C(=O)CO)C[C@@H]3O[C@H]1C[C@H](N)[C@H](O)[C@H](C)O1 [Doxorubicin, doxorubicin]
efflux ratio (P-gp (MDR1) [1]; MDCK-MDR1, pH 6, ER, pHext 6 (ISO-pH)): 1.6
Papp A→B (P-gp (MDR1) [1]; MDCK-MDR1, pH 6, Papp,A→B, pHext 6 (ISO-pH)): 0.14 ± 0.04 ×10⁻⁶ cm/s
Papp B→A (P-gp (MDR1) [1]; MDCK-MDR1, pH 6, Papp,B→A, pHext 6 (ISO-pH)): 0.23 ± 0.08 ×10⁻⁶ cm/s
Papp A→B (P-gp (MDR1) [1]; MDCK-MDR1, pH 7, Papp,A→B, pHext 7 (ISO-pH)): 0.12 ± 0.03 ×10⁻⁶ cm/s
Papp B→A (P-gp (MDR1) [1]; MDCK-MDR1, pH 7, Papp,B→A, pHext 7 (ISO-pH)): 0.78 ± 0.36 ×10⁻⁶ cm/s
recovery (P-gp (MDR1) [1]; pH 6, Recovery, pHext 6 (ISO-pH)): 89.3 to 95.3%
recovery (P-gp (MDR1) [1]; pH 7, Recovery, pHext 7 (ISO-pH)): 87.8 to 93.1%
ER (human P-gp [2]; pHext 6 (ISO-pH)): one
ER (human P-gp [2]; pHext 7 (ISO-pH)): 6.5
ER (human P-gp [2]; pHext 7 (ISO-pH), listed as doxorubicin): > 2

CN(C)C(=O)C(CCN1CCC(O)(c2ccc(Cl)cc2)CC1)(c1ccccc1)c1ccccc1 [Loperamide, loperamide]
efflux ratio (P-gp (MDR1) [3]; [5]): 2.7 ± 0.73
efflux ratio (P-gp (MDR1) [3]; [6]): 2.8 ± 0.87
efflux ratio (P-gp (MDR1) [3]; [7]): 3.2 ± 0.91
Papp A→B (P-gp (MDR1) [3]; [5]): 46.7 ± 5.03 ×10⁻⁶ cm/s
Papp A→B (P-gp (MDR1) [3]; [6]): 9.8 ± 2.84 ×10⁻⁶ cm/s
Papp A→B (P-gp (MDR1) [3]; [7]): 5.65 ± 0.42 ×10⁻⁶ cm/s
Papp B→A (P-gp (MDR1) [3]; [5]): 126 ± 27.8 ×10⁻⁶ cm/s
Papp B→A (P-gp (MDR1) [3]; [6]): 29.2 ± 3.31 ×10⁻⁶ cm/s
Papp B→A (P-gp (MDR1) [3]; [7]): 15.9 ± 4.24 ×10⁻⁶ cm/s
recovery (P-gp (MDR1) [3]; [5]): 75 to 88.1%
recovery (P-gp (MDR1) [3]; [6]): 62.3 to 81.3%
recovery (P-gp (MDR1) [3]; [7]): 69.2 to 86.1%
mean ERs (human P-gp [4]): greater than two

C=C[C@H]1C[N@@]2CC[C@H]1C[C@@H]2[C@@H](O)c1ccnc2ccc(OC)cc12 [Quinidine, quinidine]
mean ERs (human P-gp [2]; over the conditions HPS, LPS, HPU, pH 7.4): greater than two

Reference: article PMC11154460, “Effects of Aqueous Boundary Layers and Paracellular Transport on the Efflux Ratio as a Measure of Active Transport Across Cell Layers” (Pharmaceutics, 2024)
